Measurements reported in the supplement of paper PMC13380429.

How the values were obtained:
A549-ACE2 [1] = test: drug-induced phospholipidosis relative to tamoxifen; higher = more phospholipidosis
[2] = tested on: A549-ACE2 infected with SARS-CoV-2; test: SARS-CoV-2 infection rate relative to DMSO; higher = more infection; conditions: 24 h
U2OS [3] = test: relative viability EC50 (midpoint between 100% and the lowest measured viability); higher = less toxic; conditions: 72 h
Calu-3 [4] = test: as above; conditions: 72 h
Caco-2 [5] = test: as above; conditions: 72 h
Vero E6 [6] = test: as above; conditions: 72 h
U2OS [7] = test: cell viability relative to DMSO; higher = less toxic; conditions: 72 h
Calu-3 [8] = test: as above; conditions: 72 h
Caco-2 [9] = test: as above; conditions: 72 h
HepG2 [10] = test: as above; conditions: 72 h
Vero E6 [11] = test: as above; conditions: 72 h
U2OS [12] = test: drug sensitivity score (DSS) for viability; higher = more toxic; extreme values may be limits of the assay; conditions: 72 h
Calu-3 [13] = test: as above; conditions: 72 h
Caco-2 [14] = test: as above; conditions: 72 h
HepG2 [15] = test: as above; conditions: 72 h
Vero E6 [16] = test: as above; conditions: 72 h
[17] = tested on: A549-ACE2 infected with SARS-CoV-2; test: cell count relative to DMSO; higher = less toxic; conditions: 24 h
A549-ACE2 [18] = test: phospholipidosis EC50; higher = less potent phospholipidosis inducer
[19] = tested on: A549-ACE2 infected with SARS-CoV-2; test: morphology score (similarity to uninfected cells); higher = more like uninfected cells; conditions: 24 h
HepG2 [20] = test: relative viability EC50 (midpoint between 100% and the lowest measured viability); higher = less toxic; conditions: 72 h

CN(C)c1ccccc1CN1CCCN(Cc2ccccc2N(C)C)C1c1ccncc1 [GANT-61]
drug-induced phospholipidosis [%], A549-ACE2 [1]
Conditions | 0.3 µM | 0.833333 µM | 3.33333 µM | 6.66667 µM | 10 µM | 30 µM
24 h | 3.13 | 5.25 | 60.1 | 90.1 | 94.9 | 116
48 h | 6.4 | 5.75 | 51.9 | 94.9 | 118 | 135
72 h | 6.86 | 6.64 | 47 | 96.1 | 125 | –

Conditions | SARS-CoV-2 infection rate [%] | cell count [%] | cell viability [%] | morphology score | phospholipidosis EC50 [µM]
A549-ACE2 [18], 24 h | – | – | – | – | 3.39
A549-ACE2 [18], 48 h | – | – | – | – | 4.52
A549-ACE2 [18], 72 h | – | – | – | – | 6.2
Caco-2 [9], 1 nM | – | – | 94.5 | – | –
Caco-2 [9], 10 nM | – | – | 99.9 | – | –
Caco-2 [9], 100 nM | – | – | 92.7 | – | –
Caco-2 [9], 1000 nM | – | – | 99 | – | –
Caco-2 [9], 10000 nM | – | – | 95.9 | – | –
Calu-3 [8], 1 nM | – | – | 111 | – | –
Calu-3 [8], 10 nM | – | – | 109 | – | –
Calu-3 [8], 100 nM | – | – | 110 | – | –
Calu-3 [8], 1000 nM | – | – | 88.2 | – | –
Calu-3 [8], 10000 nM | – | – | 47.1 | – | –
HepG2 [10], 1 nM | – | – | 100 | – | –
HepG2 [10], 10 nM | – | – | 105 | – | –
HepG2 [10], 100 nM | – | – | 97.5 | – | –
HepG2 [10], 1000 nM | – | – | 95.3 | – | –
HepG2 [10], 10000 nM | – | – | 71.1 | – | –
U2OS [7], 1 nM | – | – | 97.5 | – | –
U2OS [7], 10 nM | – | – | 94 | – | –
U2OS [7], 100 nM | – | – | 95.8 | – | –
U2OS [7], 1000 nM | – | – | 100 | – | –
U2OS [7], 10000 nM | – | – | 93.5 | – | –
Vero E6 [11], 1 nM | – | – | 97.7 | – | –
Vero E6 [11], 10 nM | – | – | 101 | – | –
Vero E6 [11], 100 nM | – | – | 96 | – | –
Vero E6 [11], 1000 nM | – | – | 95.6 | – | –
Vero E6 [11], 10000 nM | – | – | 95 | – | –
[2], 0.3 µM | 99 | – | – | – | –
[2], 3 µM | 64 | – | – | – | –
[2], 10 µM | 33 | – | – | – | –
[2], 30 µM | 41 | – | – | – | –
[17], 0.3 µM | – | 95 | – | – | –
[17], 3 µM | – | 110 | – | – | –
[17], 10 µM | – | 117 | – | – | –
[17], 30 µM | – | 109 | – | – | –
[19], 0.3 µM | – | – | – | -0.11 | –
[19], 3 µM | – | – | – | 0.59 | –
[19], 10 µM | – | – | – | 0.68 | –
[19], 30 µM | – | – | – | 0.26 | –

Conditions | drug sensitivity score | relative viability EC50 [µM]
Caco-2 [5] | – | > 10
Caco-2 [14] | 0 | –
Calu-3 [4] | – | 1.65
Calu-3 [13] | 4.7 | –
HepG2 [15] | 2 | –
U2OS [3] | – | > 10
U2OS [12] | 0 | –
Vero E6 [6] | – | > 10
Vero E6 [16] | 0 | –

CC[C@@H](C)CNCC(=O)N1CCc2sccc2[C@@H]1COc1cccc(C)c1 [RU-SKI-43]
drug-induced phospholipidosis [%], A549-ACE2 [1]
Conditions | 0.3 µM | 0.833333 µM | 3.33333 µM | 6.66667 µM | 10 µM | 30 µM
24 h | 2.31 | 9.84 | 41 | 92 | 102 | 95.8
48 h | 1.76 | 10.7 | 27.3 | 78.5 | 100 | 95
72 h | 3.03 | 9.34 | 27.4 | 73.8 | 102 | –

Conditions | SARS-CoV-2 infection rate [%] | cell count [%] | cell viability [%] | morphology score | phospholipidosis EC50 [µM]
A549-ACE2 [18], 24 h | – | – | – | – | 3.7
A549-ACE2 [18], 48 h | – | – | – | – | 4.58
A549-ACE2 [18], 72 h | – | – | – | – | 6.66
Caco-2 [9], 1 nM | – | – | 98.8 | – | –
Caco-2 [9], 10 nM | – | – | 103 | – | –
Caco-2 [9], 100 nM | – | – | 90.4 | – | –
Caco-2 [9], 1000 nM | – | – | 107 | – | –
Caco-2 [9], 10000 nM | – | – | 83.2 | – | –
Calu-3 [8], 1 nM | – | – | 94.9 | – | –
Calu-3 [8], 10 nM | – | – | 103 | – | –
Calu-3 [8], 100 nM | – | – | 102 | – | –
Calu-3 [8], 1000 nM | – | – | 109 | – | –
Calu-3 [8], 10000 nM | – | – | 80.8 | – | –
HepG2 [10], 1 nM | – | – | 104 | – | –
HepG2 [10], 10 nM | – | – | 94.5 | – | –
HepG2 [10], 100 nM | – | – | 99.6 | – | –
HepG2 [10], 1000 nM | – | – | 108 | – | –
HepG2 [10], 10000 nM | – | – | 86.8 | – | –
U2OS [7], 1 nM | – | – | 95.5 | – | –
U2OS [7], 10 nM | – | – | 98.1 | – | –
U2OS [7], 100 nM | – | – | 94.4 | – | –
U2OS [7], 1000 nM | – | – | 99.5 | – | –
U2OS [7], 10000 nM | – | – | 93 | – | –
Vero E6 [11], 1 nM | – | – | 93.7 | – | –
Vero E6 [11], 10 nM | – | – | 92.9 | – | –
Vero E6 [11], 100 nM | – | – | 90.4 | – | –
Vero E6 [11], 1000 nM | – | – | 98.3 | – | –
Vero E6 [11], 10000 nM | – | – | 92.8 | – | –
[2], 0.3 µM | 102 | – | – | – | –
[2], 3 µM | 60 | – | – | – | –
[2], 10 µM | 24 | – | – | – | –
[2], 30 µM | 24 | – | – | – | –
[17], 0.3 µM | – | 98 | – | – | –
[17], 3 µM | – | 116 | – | – | –
[17], 10 µM | – | 119 | – | – | –
[17], 30 µM | – | 100 | – | – | –
[19], 0.3 µM | – | – | – | -0.05 | –
[19], 3 µM | – | – | – | 0.65 | –
[19], 10 µM | – | – | – | 0.83 | –
[19], 30 µM | – | – | – | 0.3 | –

Conditions | drug sensitivity score | relative viability EC50 [µM]
Caco-2 [5] | – | > 10
Caco-2 [14] | 0.2 | –
Calu-3 [4] | – | > 10
Calu-3 [13] | 0.3 | –
HepG2 [15] | 0 | –
HepG2 [20] | – | > 10
U2OS [3] | – | > 10
U2OS [12] | 0 | –
Vero E6 [6] | – | > 10
Vero E6 [16] | 0 | –
